Measurements: PubChem BioAssay AID1259407 (Chemical Carcinogenesis Research Information System (CCRIS), 2018)
The source made the active and inactive calls. How the calls were made is not given here.

System: CCRIS mutagenicity, Ames/micronucleus/aberration tests
Test: CCRIS mutagenicity studies
[1] = Test System: AMES SALMONELLA TYPHIMURIUM, Strain/Indicator: TA100, Metabolic Activation: NONE, Method: STANDARD PLATE

Measured: mutagenic call

COP(=O)(OC)C(O)C(Cl)(Cl)Cl (configuration not stated)
inactive: Test System: AMES SALMONELLA TYPHIMURIUM, Strain/Indicator: TA97, Metabolic Activation: NONE, Method: SPOT TEST inactive; negative | Test System: AMES SALMONELLA TYPHIMURIUM, Strain/Indicator: TA97, Metabolic Activation: NONE, Method: STANDARD PLATE inactive; negative | Test System: AMES SALMONELLA TYPHIMURIUM, Strain/Indicator: TA97, Metabolic Activation: RAT, LIVER, S-9, NAPHTHOFLAVONE AND PHENOBARBITAL, Method: STANDARD PLATE inactive; negative | Test System: AMES SALMONELLA TYPHIMURIUM, Strain/Indicator: TA97, Metabolic Activation: RAT, LIVER, S-9, PHENOBARBITAL AND NAPHTHOFLAVONE, Method: SPOT TEST inactive; negative | Test System: AMES SALMONELLA TYPHIMURIUM, Strain/Indicator: TA98, Metabolic Activation: HAMSTER, LIVER, S-9, AROCLOR 1254 (10%), Method: PREINCUBATION inactive; negative | Test System: AMES SALMONELLA TYPHIMURIUM, Strain/Indicator: TA98, Metabolic Activation: NONE, Method: PREINCUBATION inactive; negative | Test System: AMES SALMONELLA TYPHIMURIUM, Strain/Indicator: TA98, Metabolic Activation: NONE, Method: SPOT TEST inactive; negative | Test System: AMES SALMONELLA TYPHIMURIUM, Strain/Indicator: TA98, Metabolic Activation: NONE, Method: STANDARD PLATE inactive; negative | Test System: AMES SALMONELLA TYPHIMURIUM, Strain/Indicator: TA98, Metabolic Activation: RAT, LIVER, S-9, AROCLOR 1254 (10%), Method: PREINCUBATION inactive; negative | Test System: AMES SALMONELLA TYPHIMURIUM, Strain/Indicator: TA98, Metabolic Activation: RAT, LIVER, S-9, NAPHTHOFLAVONE AND PHENOBARBITAL, Method: STANDARD PLATE inactive; negative | Test System: AMES SALMONELLA TYPHIMURIUM, Strain/Indicator: TA98, Metabolic Activation: RAT, LIVER, S-9, PHENOBARBITAL AND NAPHTHOFLAVONE, Method: SPOT TEST inactive; negative | Test System: AMES SALMONELLA TYPHIMURIUM, Strain/Indicator: TA100, Metabolic Activation: HAMSTER, LIVER, S-9, AROCLOR 1254 (10%), Method: PREINCUBATION inactive; negative | Test System: AMES SALMONELLA TYPHIMURIUM, Strain/Indicator: TA100, Metabolic Activation: NONE, Method: PREINCUBATION inactive; negative | Test System: AMES SALMONELLA TYPHIMURIUM, Strain/Indicator: TA100, Metabolic Activation: NONE, Method: SPOT TEST inactive; negative | [1] inactive; negative | Test System: AMES SALMONELLA TYPHIMURIUM, Strain/Indicator: TA100, Metabolic Activation: RAT, LIVER, S-9, AROCLOR 1254 (10%), Method: PREINCUBATION inactive; negative | Test System: AMES SALMONELLA TYPHIMURIUM, Strain/Indicator: TA100, Metabolic Activation: RAT, LIVER, S-9, NAPHTHOFLAVONE AND PHENOBARBITAL, Method: FLUCTUATION TEST inactive; negative | Test System: AMES SALMONELLA TYPHIMURIUM, Strain/Indicator: TA100, Metabolic Activation: RAT, LIVER, S-9, NAPHTHOFLAVONE AND PHENOBARBITAL, Method: STANDARD PLATE inactive; negative | Test System: AMES SALMONELLA TYPHIMURIUM, Strain/Indicator: TA100, Metabolic Activation: RAT, LIVER, S-9, PHENOBARBITAL AND NAPHTHOFLAVONE, Method: SPOT TEST inactive; negative | Test System: AMES SALMONELLA TYPHIMURIUM, Strain/Indicator: TA104, Metabolic Activation: NONE, Method: STANDARD PLATE inactive; negative | Test System: AMES SALMONELLA TYPHIMURIUM, Strain/Indicator: TA104, Metabolic Activation: RAT, LIVER, S-9, NAPHTHOFLAVONE AND PHENOBARBITAL, Method: STANDARD PLATE inactive; negative | Test System: AMES SALMONELLA TYPHIMURIUM, Strain/Indicator: TA1535, Metabolic Activation: HAMSTER, LIVER, S-9, AROCLOR 1254 (10%), Method: PREINCUBATION inactive; negative | Test System: AMES SALMONELLA TYPHIMURIUM, Strain/Indicator: TA1535, Metabolic Activation: NONE, Method: PREINCUBATION inactive; negative | Test System: AMES SALMONELLA TYPHIMURIUM, Strain/Indicator: TA1535, Metabolic Activation: NONE, Method: SPOT TEST inactive; negative | Test System: AMES SALMONELLA TYPHIMURIUM, Strain/Indicator: TA1535, Metabolic Activation: NONE, Method: STANDARD PLATE inactive; negative | Test System: AMES SALMONELLA TYPHIMURIUM, Strain/Indicator: TA1535, Metabolic Activation: RAT, LIVER, S-9, AROCLOR 1254 (10%), Method: PREINCUBATION inactive; negative | Test System: AMES SALMONELLA TYPHIMURIUM, Strain/Indicator: TA1535, Metabolic Activation: RAT, LIVER, S-9, NAPHTHOFLAVONE AND PHENOBARBITAL, Method: PREINCUBATION inactive; negative | Test System: AMES SALMONELLA TYPHIMURIUM, Strain/Indicator: TA1535, Metabolic Activation: RAT, LIVER, S-9, NAPHTHOFLAVONE AND PHENOBARBITAL, Method: STANDARD PLATE inactive; negative | Test System: AMES SALMONELLA TYPHIMURIUM, Strain/Indicator: TA1535, Metabolic Activation: RAT, LIVER, S-9, PHENOBARBITAL AND NAPHTHOFLAVONE, Method: SPOT TEST inactive; negative | Test System: AMES SALMONELLA TYPHIMURIUM, Strain/Indicator: TA1537, Metabolic Activation: HAMSTER, LIVER, S-9, AROCLOR 1254 (10%), Method: PREINCUBATION inactive; negative | Test System: AMES SALMONELLA TYPHIMURIUM, Strain/Indicator: TA1537, Metabolic Activation: NONE, Method: PREINCUBATION inactive; negative | Test System: AMES SALMONELLA TYPHIMURIUM, Strain/Indicator: TA1537, Metabolic Activation: RAT, LIVER, S-9, AROCLOR 1254 (10%), Method: PREINCUBATION inactive; negative | Test System: CHINESE HAMSTER V-79, Strain/Indicator: V-79/OUABAIN, Metabolic Activation: NONE inactive; negative
active: End Point: IN VIVO MICRONUCLEUS, Test System: PREIMPLANTATION EMBRYOS, Species: MOUSE, Strain/Sex: ICR FEMALE/EMBRYO, Route: MATERNAL SINGLE IP DOSE, EMBRYO HARVEST ON G.D 3 active; positive | End Point: In vivo micronucleus, Test System: Micronucleated, binucleated and multinucleated hepatocytes, Species: Mouse, Strain/Sex: ddY/Male, Route: Intravenous active; positive for binucleated and multinucleated cells when agent administered after | Test System: AMES SALMONELLA TYPHIMURIUM, Strain/Indicator: TA100, Metabolic Activation: RAT, LIVER, S-9, NAPHTHOFLAVONE AND PHENOBARBITAL, Method: PREINCUBATION active; positive | Test System: AMES SALMONELLA TYPHIMURIUM, Strain/Indicator: TA100, Metabolic Activation: S-9 MIX, Method: STANDARD PLATE active; positive | Test System: AMES SALMONELLA TYPHIMURIUM, Strain/Indicator: TA104, Metabolic Activation: NONE, Method: PREINCUBATION active; positive | Test System: AMES SALMONELLA TYPHIMURIUM, Strain/Indicator: TA104, Metabolic Activation: RAT, LIVER, S-9, NAPHTHOFLAVONE AND PHENOBARBITAL, Method: PREINCUBATION active; positive | Test System: E. COLI, Strain/Indicator: WP2, Metabolic Activation: NONE, Method: STANDARD PLATE active; positive | Test System: E. COLI, Strain/Indicator: WP2, Metabolic Activation: RAT, LIVER, S-9, AROCLOR 1254, Method: STANDARD PLATE active; positive | Test System: E. COLI, Strain/Indicator: WP2 UVRA, Metabolic Activation: NONE, Method: STANDARD PLATE active; positive | Test System: E. COLI, Strain/Indicator: WP2 UVRA, Metabolic Activation: RAT, LIVER, S-9, AROCLOR 1254, Method: STANDARD PLATE active; positive | Test System: UDS HUMAN CELLS, Strain/Indicator: EUE LINE/THY INCORP, Metabolic Activation: NONE, Method: AUTORADIOGRAPHY active; positive | Test System: UDS HUMAN FIBROBLASTS, Strain/Indicator: THY INCORP (NON-S-PHASE), Metabolic Activation: NONE, Method: LIQUID SCINTILLATION COUNTING active; positive

O=c1c2c(c3ccc4[nH]cccc4c3c1O)O2
inactive: [1] inactive; negative

c1cncc(-c2cccnc2)c1
active: Test System: AMES SALMONELLA TYPHIMURIUM, Strain/Indicator: TA100, Metabolic Activation: RAT, LIVER, S-9, PHENOBARBITAL, Method: STANDARD PLATE active; positive | Test System: AMES SALMONELLA TYPHIMURIUM, Strain/Indicator: TA1538, Metabolic Activation: RAT, LIVER, S-9, PHENOBARBITAL, Method: STANDARD PLATE active; positive
inactive: Test System: AMES SALMONELLA TYPHIMURIUM, Strain/Indicator: TA97, Metabolic Activation: RAT, LIVER, S-9, PHENOBARBITAL, Method: STANDARD PLATE inactive; negative | Test System: AMES SALMONELLA TYPHIMURIUM, Strain/Indicator: TA98, Metabolic Activation: RAT, LIVER, S-9, PHENOBARBITAL, Method: STANDARD PLATE inactive; negative | Test System: AMES SALMONELLA TYPHIMURIUM, Strain/Indicator: TA1535, Metabolic Activation: RAT, LIVER, S-9, PHENOBARBITAL, Method: STANDARD PLATE inactive; negative | Test System: AMES SALMONELLA TYPHIMURIUM, Strain/Indicator: TA1537, Metabolic Activation: RAT, LIVER, S-9, PHENOBARBITAL, Method: STANDARD PLATE inactive; negative
